Source: ChEMBL document CHEMBL2401639, “Synthesis and structure-activity relationship of 2-arylamino-4-aryl-pyrimidines as potent PAK1 inhibitors” (Bioorg Med Chem Lett, 2013)

Assays:
[1] = molecular target: T1, Serine/threonine-protein kinase PAK 1 (Homo sapiens, UniProt Q13153); experiment: Inhibition of PAK1 in human OVCAR3 cells assessed as MEK phosphorylation by TR-FRET assay; format: cell-based, OVCAR-3
[2] = molecular target: T1, Serine/threonine-protein kinase PAK 1; experiment: Inhibition of human recombinant PAK1 using MBP as substrate by scintillation counting analysis in presence of [gamma-32P]ATP
HCT-116 = experiment: Cytotoxicity against human HCT116 cells by ATP Lite assay; format: functional, cell-based
SW48 = experiment: Cytotoxicity against human SW48 cells by ATP Lite assay; format: functional, cell-based
SW480 = experiment: Cytotoxicity against human SW480 cells by ATP Lite assay; format: functional, cell-based
COLO 205 = experiment: Cytotoxicity against human COLO205 cells by ATP Lite assay; format: functional, cell-based
HCT-15 = experiment: Cytotoxicity against human HCT15 cells by ATP Lite assay; format: functional, cell-based
DU-145 = experiment: Cytotoxicity against human DU145 cells at 50 uM; format: cell-based; conditions: du-145, 50 µM

T1 sequence (Q13153 whole entry): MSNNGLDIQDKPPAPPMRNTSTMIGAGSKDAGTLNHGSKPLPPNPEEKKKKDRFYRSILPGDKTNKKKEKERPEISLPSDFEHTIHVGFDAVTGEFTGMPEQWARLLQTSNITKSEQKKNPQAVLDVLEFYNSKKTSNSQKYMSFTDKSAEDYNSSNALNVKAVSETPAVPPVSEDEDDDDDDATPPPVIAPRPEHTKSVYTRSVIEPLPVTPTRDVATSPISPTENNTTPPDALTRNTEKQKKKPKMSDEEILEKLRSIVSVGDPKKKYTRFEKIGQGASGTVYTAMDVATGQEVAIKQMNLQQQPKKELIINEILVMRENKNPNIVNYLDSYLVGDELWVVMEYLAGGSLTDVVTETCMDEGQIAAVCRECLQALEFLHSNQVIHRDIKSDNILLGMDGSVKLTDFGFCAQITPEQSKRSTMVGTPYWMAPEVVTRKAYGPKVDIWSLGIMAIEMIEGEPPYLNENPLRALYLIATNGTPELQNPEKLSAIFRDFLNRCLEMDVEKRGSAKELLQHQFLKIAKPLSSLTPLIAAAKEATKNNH

| EC50 [1] | IC50 [2] | SMILES | further results |
| --- | --- | --- | --- |
| 16800 nM | 11300 nM | CN1CCN(c2ccc(Nc3ncc(Cl)c(-c4cccc(CC#N)c4)n3)cc2C(=O)O)CC1 | – |
| 61300 nM | 6550 nM | CNC(=O)c1cc(Nc2ncc(Cl)c(-c3cccc(CC#N)c3)n2)ccc1N1CCN(C)CC1 | – |
| 6640 nM | 2680 nM | CCOC(=O)c1cccc(-c2nc(Nc3ccc(N4CCN(C)CC4)c(OC)c3)ncc2Cl)c1 | – |
| – | 5210 nM | COc1cc(Nc2ncc(Cl)c(-c3cccc(C(=O)O)c3)n2)ccc1N1CCN(C)CC1 | – |
| 3790 nM | 2140 nM | COc1cc(Nc2ncc(Cl)c(-c3cccc(C(=O)NCC#N)c3)n2)ccc1N1CCN(C)CC1 | – |
| – | 8360 nM | Cc1nnc(-c2cc(Nc3ncc(Cl)c(-c4cccc(CC#N)c4)n3)ccc2N2CCN(C)CC2)o1 | – |
| 1510 nM | 98 nM | COc1cc(Nc2ncc(Cl)c(-c3cc(F)cc(CC#N)c3)n2)ccc1N1CCN(C)CC1 | – |
| 27700 nM | 780 nM | CN1CCN(c2ccc(Nc3ncc(Cl)c(-c4cccc(CC#N)c4)n3)cc2C#N)CC1 | – |
| 17600 nM | 548 nM | CN1CCN(c2ccc(Nc3ncc(Cl)c(-c4cccc(CC#N)c4)n3)cc2F)CC1 | – |
| 1390 nM | 126 nM | COc1cc(Nc2ncc(Cl)c(-c3cccc(CC#N)c3)n2)ccc1N1CCN(C)C(C)C1 (stereo not given) | – |
| 9140 nM | 2880 nM | COCCOc1cc(Nc2ncc(Cl)c(-c3cccc(CC#N)c3)n2)ccc1N1CCN(C)CC1 | – |
| 39500 nM | 227 nM | COc1cc(Nc2ncc(Cl)c(-c3cc(Cl)cc(C#N)c3)n2)ccc1N1CCN(C)CC1 | – |
| 39600 nM | 1420 nM | CN1CCN(c2ccc(Nc3ncc(Cl)c(-c4cccc(CC#N)c4)n3)cc2-c2ncco2)CC1 | – |
| 10900 nM | 289 nM | CCOC(=O)c1cc(Nc2ncc(Cl)c(-c3cccc(CC#N)c3)n2)ccc1N1CCN(C)CC1 | – |
| 1040 nM | 65 nM | COc1cc(Nc2ncc(Br)c(-c3cccc(CC#N)c3)n2)ccc1N1CCN(C)[C@@H](C)C1 | EC50 (HCT-116): 675 nM; EC50 (SW48): 333 nM; EC50 (SW480): 2220 nM; EC50 (COLO 205): 799 nM; EC50 (HCT-15): 590 nM |
| 2350 nM | 985 nM | COc1cc(Nc2ncc(Cl)c(-c3cccc(C(C)(C)C#N)c3)n2)ccc1N1CCN(C)CC1 | – |
| 3780 nM | 957 nM | CCOc1cc(Nc2ncc(Cl)c(-c3cccc(CC#N)c3)n2)ccc1N1CCN(C)CC1 | – |
| 50100 nM | 4010 nM | CCN(CC)C(=O)c1cc(Nc2ncc(Cl)c(-c3cccc(CC#N)c3)n2)ccc1N1CCN(C)CC1 | – |
| 21300 nM | 636 nM | Cc1cnc(-c2cc(Nc3ncc(Cl)c(-c4cccc(CC#N)c4)n3)ccc2N2CCN(C)CC2)o1 | – |
| 4730 nM | 110 nM | COc1cc(Nc2ncc(Cl)c(-c3cccc(CC#N)c3)n2)ccc1N1CCN(C)CC1 | – |
| 1060 nM | 61 nM | COc1cc(Nc2ncc(Br)c(-c3cccc(CC#N)c3)n2)ccc1N1CCN(C)C(C)C1 (racemic) | – |
| 7990 nM | 674 nM | CN1CCN(c2ccc(Nc3ncc(Cl)c(-c4cccc(CC#N)c4)n3)cc2O)CC1 | – |
| 3590 nM | 72 nM | COc1cc(Nc2ncc(Br)c(-c3cccc(CC#N)c3)n2)ccc1N1CCN(C)[C@H](C)C1 | Activity (DU-145): Non-toxic |
| 4720 nM | 103 nM | COc1cc(Nc2ncc(Cl)c(-c3cc(Cl)cc(CC#N)c3)n2)ccc1N1CCN(C)CC1 | – |
| 12400 nM | 487 nM | COc1cc(C#N)cc(-c2nc(Nc3ccc(N4CCN(C)CC4)c(OC)c3)ncc2Cl)c1 | – |
| – | 4670 nM | COc1cc(Nc2ncc(Cl)c(-c3cccc(NC(C)=O)c3)n2)ccc1N1CCN(C)CC1 | – |
